pIC50, pKi: −log10 of the molar value.
Columns and labels:
Format in all cases: biochemical
Human PKK = target: T1, Human PKK (Homo sapiens, UniProt P03952); assay: Inhibition of PKK using an endpoint assay (human PKK); conditions: fluorogenic substrate H-Pro-Phe-Arg-AMC, 1 h room temperature, method names human or rat PKK, table does not say which
T1 construct: purchased Enzyme Research Laboratories
In short: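 Human PKK inhibition measured in 100 mM Tris, 150 mM NaCl, pH 7.8, 0.1% BSA, 0.05% Tween20, 1% DMSO. Endpoint format: reaction stopped with PPACK II at 1 μM final, fluorescence read at 355 nm excitation/460 nm emission.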

[1] = target: T2, PKK in kaolin activated human platelet poor plasma (Homo sapiens, UniProt P03952); assay: Inhibition of PKK in kaolin activated human PPP; conditions: 25-750 μg/mL kaolin, global fit, text b200 calls the values IC90;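 note: readout is the rate of fluorogenic substrate cleavage in rfu per min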
T2 construct: Platelet poor plasma (PPP) obtained from human wholeblood; from tissue
T2 sequence (P03952 391-638 limits assumed): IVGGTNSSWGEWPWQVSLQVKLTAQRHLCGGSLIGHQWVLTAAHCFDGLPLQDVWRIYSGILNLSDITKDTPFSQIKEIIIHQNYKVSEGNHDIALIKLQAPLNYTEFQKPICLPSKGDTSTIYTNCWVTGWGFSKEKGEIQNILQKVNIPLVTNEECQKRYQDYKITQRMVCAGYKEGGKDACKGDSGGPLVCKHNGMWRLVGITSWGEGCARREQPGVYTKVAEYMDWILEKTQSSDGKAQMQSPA
T2 sequence (P03952 20-390 limits assumed): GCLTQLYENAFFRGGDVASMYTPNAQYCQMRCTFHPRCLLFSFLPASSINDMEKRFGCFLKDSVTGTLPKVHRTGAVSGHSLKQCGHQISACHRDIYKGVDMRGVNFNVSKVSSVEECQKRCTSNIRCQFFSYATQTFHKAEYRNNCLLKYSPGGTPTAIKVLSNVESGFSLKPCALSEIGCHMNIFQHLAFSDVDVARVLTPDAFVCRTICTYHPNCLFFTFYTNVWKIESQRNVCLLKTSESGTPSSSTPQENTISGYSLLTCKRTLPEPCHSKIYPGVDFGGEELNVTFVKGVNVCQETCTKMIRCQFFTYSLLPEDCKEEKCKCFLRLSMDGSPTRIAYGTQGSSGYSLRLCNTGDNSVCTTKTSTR
Experimental: Platelet poor plasma (PPP) obtained from human wholeblood, anticoagulated with Na-Citrate, is incubated with various concentrations of the test compound together with either 25, 75, 250, or 750 μg/mL kaolin in assay buffer for 20 min at 37° C. such that for each kaolin dose used a concentration response is obtained for the test compound.

human TK1 = target: T3, human TK1 (Homo sapiens, UniProt P06870); assay: Inhibition of TK1 (Ki); conditions: activated human TK1, substrate H-Pro-Phe-Arg-AMC, 24° C.
T3 construct: purchased R&D Systems
T3 sequence (P06870 25-262): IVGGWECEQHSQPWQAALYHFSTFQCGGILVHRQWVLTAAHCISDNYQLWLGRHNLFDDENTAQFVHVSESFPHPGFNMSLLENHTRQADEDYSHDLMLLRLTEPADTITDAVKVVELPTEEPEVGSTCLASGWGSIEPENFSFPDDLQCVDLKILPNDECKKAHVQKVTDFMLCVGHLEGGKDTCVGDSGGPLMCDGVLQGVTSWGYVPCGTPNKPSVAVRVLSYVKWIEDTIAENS
In short: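 Trypsin-activated human TK1 (31.25 nM) incubated at 24° C with 0.1 mM H-Pro-Phe-Arg-AMC and compound in Tris pH 7.8, 150 mM NaCl, 0.1% BSA, 0.05% Tween20, 1% DMSO. AMC fluorescence (ex 350/em 450 nm) read kinetically over 16 min; IC50 from four-parameter fit, converted to Ki using substrate KM.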

T1 sequence (P03952 20-390 limits assumed): as the sequence (P03952 20-390 limits assumed) above
T1 sequence (P03952 391-638 limits assumed): as the sequence (P03952 391-638 limits assumed) above

Compound | pIC50 (Human PKK) | pIC50 [1] | pKi (human TK1)
Cn1cnc2c1CC[C@H]2NC(=O)c1cnn(Cc2ccc(N3CC4CC4C3)nc2)c1 (stereo partly drawn) [Example 131, 1-[(6-{3-Azabicyclo[3.1.0]hexan-3-yl}pyridin-3-yl)methyl]-N-[(4R)-1-methyl-1H,4H,5H,6H-cyclopenta[d]imidazol-4-yl]-1H-pyrazole-4-carboxamide] | 8.37 | 6.02 | < 5.00
Cc1nc(N2CC3CC3C2)ccc1Cn1cc(C(=O)N[C@@H]2CCc3c2ncn3C)cn1 (stereo partly drawn) [Example 133, 1-[(6-{3-Azabicyclo[3.1.0]hexan-3-yl}-2-methylpyridin-3-yl)methyl]-N-[(4R)-1-methyl-1H,4H,5H,6H-cyclopenta[d]imidazol-4-yl]-1H-pyrazole-4-carboxamide] | 8.80 | 6.25 | < 5.00
Cn1cnc2c1CC[C@H]2NC(=O)c1cnn(Cc2ccc(N3CC4CC4C3)nc2C(F)(F)F)c1 (stereo partly drawn) [Example 134, 1-[(6-{3-Azabicyclo[3.1.0]hexan-3-yl}-2-(trifluoromethyl)pyridin-3-yl)methyl]-N-[(4R)-1-methyl-1H,4H,5H,6H-cyclopenta[d]imidazol-4-yl]-1H-pyrazole-4-carboxamide] | 8.77 | 5.99 | < 5.00
Cn1cnc2c1CC[C@H]2NC(=O)c1cn(Cc2ccc(N3CC4CC4C3)nc2)nn1 (stereo partly drawn) [Example 135, 1-[(6-{3-Azabicyclo[3.1.0]hexan-3-yl}pyridin-3-yl)methyl]-N-[(4R)-1-methyl-1H,4H,5H,6H-cyclopenta[d]imidazol-4-yl]-1H-1,2,3-triazole-4-carboxamide] | 8.38 | 6.04 | < 5.00
Cc1nc(N2CC3C(C2)C3(F)F)ncc1Cn1cnc(C(=O)N[C@@H]2CCc3c2ncn3C)c1 (stereo partly drawn) [Example 136, 1-[(2-{6,6-Difluoro-3-azabicyclo[3.1.0]hexan-3-yl}-4-methylpyrimidin-5-yl)methyl]-N-[(4R)-1-methyl-1H,4H,5H,6H-cyclopenta[d]imidazol-4-yl]-1H-imidazole-4-carboxamide] | 8.70 | 6.51 | < 5.00
Cc1nc(N2CC3CC3C2)ncc1Cn1cc(C(=O)N[C@@H]2CCc3c2ncn3C)nn1 (stereo partly drawn) [Example 137, 1-[(2-{3-Azabicyclo[3.1.0]hexan-3-yl}-4-methylpyrimidin-5-yl)methyl]-N-[(4R)-1-methyl-1H,4H,5H,6H-cyclopenta[d]imidazol-4-yl]-1H-1,2,3-triazole-4-carboxamide] | 8.36 | 6.12 | < 5.00
Cc1nc(N2CC3(CC3)C2)ccc1Cn1cc(C(=O)N[C@@H]2CCc3c2ncn3C)cn1 [Example 169, 1-[(6-{5-Azaspiro[2.3]hexan-5-yl}-2-methylpyridin-3-yl)methyl]-N-[(4R)-1-methyl-1H,4H,5H,6H-cyclopenta[d]imidazol-4-yl]-1H-pyrazole-4-carboxamide] | 9.22 | 6.31 | < 5.00
Cc1nc(N2CC3(CC3)C2)ccc1Cn1cnc(C(=O)N[C@@H]2CCc3c2ncn3C)c1 [Example 170, 1-[(6-{5-Azaspiro[2.3]hexan-5-yl}-2-methylpyridin-3-yl)methyl]-N-[(4R)-1-methyl-1H,4H,5H,6H-cyclopenta[d]imidazol-4-yl]-1H-imidazole-4-carboxamide] | 9.10 | 6.33 | < 5.00
Cc1nc(N2CC3CC3C2)ncc1Cn1cnc(C(=O)N[C@@H]2CCc3c2ncn3C)c1 (stereo partly drawn) [Example 171, 1-[(2-{3-Azabicyclo[3.1.0]hexan-3-yl}-4-methylpyrimidin-5-yl)methyl]-N-[(4R)-1-methyl-1H,4H,5H,6H-cyclopenta[d]imidazol-4-yl]-1H-imidazole-4-carboxamide] | 8.59 | 6.57 | < 5.00
Cc1nc(N2CC3CC3C2)ccc1Cn1cc(C(=O)N[C@@H]2CCc3c2ncn3C)c2cncnc21 (stereo partly drawn) [Example 173, 7-[(6-{3-Azabicyclo[3.1.0]hexan-3-yl]-2-methylpyridin-3-yl)methyl]-N-[(4R)-1-methyl-1H,4H,5H,6H-cyclopenta[d]imidazol-4-yl]-7H-pyrrolo[2,3-d]pyrimidine-5-carboxamide] | 9.22 | 6.14 | < 5.00
Cc1nc(N2CC3C(C2)C3(F)F)ncc1Cn1cc(C(=O)N[C@@H]2CCc3c2ncn3C)c2cncnc21 (stereo partly drawn) [Example 175, 7-[(2-{6,6-Difluoro-3-azabicyclo[3.1.0]hexan-3-yl}-4-methylpyrimidin-5-yl)methyl]-N-[(4R)-1-methyl-1H,4H,5H,6H-cyclopenta[d]imidazol-4-yl]-7H-pyrrolo[2,3-d]pyrimidine-5-carboxamide] | 8.54 | 6.09 | < 5.00
Cc1nc(N2CC3CC3C2)ncc1Cn1cc(C(=O)N[C@@H]2CCc3c2ncn3C)cn1 (stereo partly drawn) [Example 177, 1-[(2-{3-Azabicyclo[3.1.0]hexan-3-yl}-4-methylpyrimidin-5-yl)methyl]-N-[(4R)-1-methyl-1H,4H,5H,6H-cyclopenta[d]imidazol-4-yl]-1H-pyrazole-4-carboxamide] | 8.26 | 5.93 | < 5.00
Cc1nc(N2CC3C(C2)C3(F)F)ncc1Cn1cc(C(=O)N[C@@H]2CCc3c2ncn3C)nn1 (stereo partly drawn) [Example 178, 1-[(2-{6,6-Difluoro-3-azabicyclo[3.1.0]hexan-3-yl}-4-methylpyrimidin-5-yl)methyl]-N-[(4R)-1-methyl-1H,4H,5H,6H-cyclopenta[d]imidazol-4-yl]-1H-1,2,3-triazole-4-carboxamide] | 8.30 | 6.07 | < 5.00
Cc1nc(N2CC3CC3C2)ccc1Cc1ccc(C(=O)N[C@@H]2CCc3c2ncn3C)o1 (stereo partly drawn) [Example 181, 5-[(6-{3-Azabicyclo[3.1.0]hexan-3-yl}-2-methylpyridin-3-yl)methyl]-N-[(4R)-1-methyl-1H,4H,5H,6H-cyclopenta[d]imidazol-4-yl]furan-2-carboxamide] | 7.96 | 4.65 | < 5.00
Cn1cnc2c1CC[C@H]2NC(=O)c1cnn(Cc2ccc(N3CC4CC4C3)c(C#N)c2)c1 (stereo partly drawn) [Example 190, 1-[(4-{3-Azabicyclo[3.1.0]hexan-3-yl}-3-cyanophenyl)methyl]-N-[(4R)-1-methyl-1H,4H,5H,6H-cyclopenta[d]imidazol-4-yl]-1H-pyrazole-4-carboxamide] | 8.82 | 5.97 | < 5.00
Cc1c(Cn2cc(C(=O)N[C@@H]3CCc4c3ncn4C)cn2)ccc(N2CC3CC3C2)c1C#N (stereo partly drawn) [Example 193, 1-[(4-{3-azabicyclo[3.1.0]hexan-3-yl}-3-cyano-2-methylphenyl)methyl]-N-[(4R)-1-methyl-1H,4H,5H,6H-cyclopenta[d]imidazol-4-yl]-1H-pyrazole-4-carboxamide] | 9.40 | 6.60 | < 5.00
Cn1cnc2c1CC[C@H]2NC(=O)c1cn(Cc2ccc(N3CC4CC4C3)c(C#N)c2)cn1 (stereo partly drawn) [Example 196, 1-[(4-{3-azabicyclo[3.1.0]hexan-3-yl}-3-cyanophenyl)methyl]-N-[(4R)-1-methyl-1H,4H,5H,6H-cyclopenta[d]imidazol-4-yl]-1H-imidazole-4-carboxamide] | 8.82 | 6.46 | < 5.00
Cn1cnc2c1CC[C@H]2NC(=O)c1cnn(Cc2ccc(N3CC4CC4C3)c(C#N)c2F)c1 (stereo partly drawn) [Example 198, 1-[(4-{3-azabicyclo[3.1.0]hexan-3-yl}-3-cyano-2-fluorophenyl)methyl]-N-[(4R)-1-methyl-1H,4H,5H,6H-cyclopenta[d]imidazol-4-yl]-1H-pyrazole-4-carboxamide] | 9.10 | 6.40 | < 5.00
Cc1nc(N2CC3CC3C2)ccc1Cn1cc(C(=O)N[C@@H]2CCc3c2ncn3C)c(CO)n1 (stereo partly drawn) [Example 217, 1-[(6-{3-Azabicyclo[3.1.0]hexan-3-yl}-2-methylpyridin-3-yl)methyl]-3-(hydroxymethyl)-N-[(4R)-1-methyl-1H,4H,5H,6H-cyclopenta[d]imidazol-4-yl]-1H-pyrazole-4-carboxamide] | 9.05 | 6.20 | < 5.00
Cc1nc(N2CC3C(C2)C3(F)F)ncc1Cn1cc(C(=O)N[C@@H]2CCc3c2ncn3C)cn1 (stereo partly drawn) [Example 218, 1-[(2-{6,6-Difluoro-3-azabicyclo[3.1.0]hexan-3-yl}-4-methylpyrimidin-5-yl)methyl]-N-[(4R)-1-methyl-1H,4H,5H,6H-cyclopenta[d]imidazol-4-yl]-1H-pyrazole-4-carboxamide] | 8.46 | 6.19 | < 5.00

From patent US12479827B2, “Heteroaromatic carboxamide derivatives as plasma kallikrein inhibitors” (Boehringer Ingelheim International GmbH, priority 2020, dated 2025)
